Structures can show the parent of a compound that is named as a salt.
Columns and labels:
Jarid1A = Jarid1A (Homo sapiens (Human), UniProt P29375); experiment: Jarid1A in vitro enzyme inhibition assay (TR-FRET); format: biochemical; settings: H3K4me3-biotin peptide
Jarid1B = Jarid1B (Homo sapiens (Human), UniProt Q9UGL1); experiment: Jarid1B in vitro enzyme inhibition assay (TR-FRET); format: biochemical; settings: TR-FRET, H3K4me3-biotin peptide; read-out: IC50 Jarid1B
JMJD2C = JMJD2C (Homo sapiens (Human), UniProt Q9H3R0); experiment: JMJD2C in vitro enzyme inhibition assay (TR-FRET); format: biochemical; settings: TR-FRET, H3K9me3-biotin peptide; read-out: IC50 JNJD2C
JMJD2C, sequence (Q9H3R0 2-372): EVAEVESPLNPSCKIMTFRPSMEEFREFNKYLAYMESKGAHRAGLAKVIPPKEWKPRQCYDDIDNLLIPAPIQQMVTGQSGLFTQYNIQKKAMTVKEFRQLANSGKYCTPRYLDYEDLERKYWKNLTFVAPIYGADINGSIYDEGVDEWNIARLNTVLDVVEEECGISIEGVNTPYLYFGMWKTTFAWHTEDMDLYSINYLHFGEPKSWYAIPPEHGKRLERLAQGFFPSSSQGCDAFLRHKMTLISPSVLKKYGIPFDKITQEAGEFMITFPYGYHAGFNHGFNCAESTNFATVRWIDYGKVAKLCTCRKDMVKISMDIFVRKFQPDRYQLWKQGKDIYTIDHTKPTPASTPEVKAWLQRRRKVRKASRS

JMJD2A = JMJD2A (Homo sapiens (Human), UniProt O75164); experiment: JMJD2A in vitro enzyme inhibition assay (TR-FRET); format: biochemical; settings: H3K9me3-biotin peptide
JMJD2A, sequence (O75164 1-350): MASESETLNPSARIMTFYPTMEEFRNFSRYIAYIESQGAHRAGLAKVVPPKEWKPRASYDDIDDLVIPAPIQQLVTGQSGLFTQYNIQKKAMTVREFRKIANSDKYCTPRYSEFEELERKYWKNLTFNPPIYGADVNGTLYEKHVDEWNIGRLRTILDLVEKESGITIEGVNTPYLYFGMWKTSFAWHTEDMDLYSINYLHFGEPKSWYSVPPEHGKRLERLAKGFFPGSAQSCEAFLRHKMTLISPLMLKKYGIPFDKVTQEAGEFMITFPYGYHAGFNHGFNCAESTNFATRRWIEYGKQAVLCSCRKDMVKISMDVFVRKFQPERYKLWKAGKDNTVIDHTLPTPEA
Description: This assay determines the ability of a test compound to inhibit Jarid1A, Jarid1B, JMJD2C, and JMJD2A demethylase activity.
Reaction product was determined quantitatively by TR-FRET after the addition of detection reagent Phycolink Streptavidin-allophycocyanin (Prozyme) and Europium-anti-di-methylated histone H3 lysine 9 (H3K9me2) antibody (PerkinElmer) in the presence of 5 mM EDTA in LANCE detection buffer (PerkinElmer) at a final concentration of 50 nM and 1 nM, respectively.
The assay reaction was initiated by the following: 2 μl of the mixture of 900 nM H3K9me3-biotin labeled peptide and 6 μM alpha-ketoglutaric acid with 2 μl of 11-point serial diluted inhibitor in 3% DMSO were added to each well of plate, followed by the addition of 2 μl of 6 nM JMJD2A to initiate the reaction. The reaction mixture was incubated at room temperature for 30 minutes, and terminated by the addition of 6 μl of 5 mM EDTA in LANCE detection buffer containing 100 nM Phycolink Streptavidin-allophycocyanin and 2 nM Europium-anti-H3K9me2 antibody.
The ability of the compounds disclosed herein to inhibit demethylase activity was quantified and the respective IC50 value was determined.

KDM5A and KDM5B = experiment: In vitro cell-based assay, ZR-75-1 cell line: tri-methyl H3K4 immuno-blotting (cellular inhibition of KDM5A/B); settings: ZR-75-1 breast cancer cells, 72 hours, read-out: IC50 ZR-75-1 cell-MOA
Excerpt: This quantitative immuno-blotting assay measures the amount tri-methylated histone H3 at amino acid Lysine number 4, a specific substrate […] of the direct enzymatic activity of the histone demethylases KDM5A and KDM5B from extracts of the ZR-75-1 breast cancer cell line.
This assay is a fluorometric immunoassay for the quantification of tri-methyl H3K4 extracted from cells treated with test compound and is used as a measure of the cellular inhibition of KDM5A/B.
Cells were left in the presence of test compound for 72 hours. Extracts were prepared containing all of the cellular histone material using detergent based lysis and sonication methods. These lysates were subsequently normalized for total protein content using a colorimetric bicinchonic acid assay (MicroBCA Pierce/Thermo Scientific). Normalized cell extracts were then subjected to typical immuno-blotting procedures using NuPage reagents (Life Technologies). Electrophoretically separated histones were then transferred and immobilized using polyvinylidene difluoride membrane (Immobilon-FL Millipore). The amount of tri-methylated lysine 4 of histone H3 was detected using an antibody specific to the tri-methylated state (Cell Signaling Technologies) and quantified on an infrared imager using a densitometry software package (Odyssey CLx, Image Studio, Li-Cor). This background subtracted densitometry value was reported as a ration of the GAPDH amount for that sample and then calculated as a percent of the DMSO treated sample. The software package XL-fit (IDBS) was then used to calculate a relative IC50 value for the dilution series of a given test compound according to the equation: fit=(D+((Vmax*(x^n))/((x^n)+(Km^n)))).

Jarid1A, sequence (P29375 1-1090): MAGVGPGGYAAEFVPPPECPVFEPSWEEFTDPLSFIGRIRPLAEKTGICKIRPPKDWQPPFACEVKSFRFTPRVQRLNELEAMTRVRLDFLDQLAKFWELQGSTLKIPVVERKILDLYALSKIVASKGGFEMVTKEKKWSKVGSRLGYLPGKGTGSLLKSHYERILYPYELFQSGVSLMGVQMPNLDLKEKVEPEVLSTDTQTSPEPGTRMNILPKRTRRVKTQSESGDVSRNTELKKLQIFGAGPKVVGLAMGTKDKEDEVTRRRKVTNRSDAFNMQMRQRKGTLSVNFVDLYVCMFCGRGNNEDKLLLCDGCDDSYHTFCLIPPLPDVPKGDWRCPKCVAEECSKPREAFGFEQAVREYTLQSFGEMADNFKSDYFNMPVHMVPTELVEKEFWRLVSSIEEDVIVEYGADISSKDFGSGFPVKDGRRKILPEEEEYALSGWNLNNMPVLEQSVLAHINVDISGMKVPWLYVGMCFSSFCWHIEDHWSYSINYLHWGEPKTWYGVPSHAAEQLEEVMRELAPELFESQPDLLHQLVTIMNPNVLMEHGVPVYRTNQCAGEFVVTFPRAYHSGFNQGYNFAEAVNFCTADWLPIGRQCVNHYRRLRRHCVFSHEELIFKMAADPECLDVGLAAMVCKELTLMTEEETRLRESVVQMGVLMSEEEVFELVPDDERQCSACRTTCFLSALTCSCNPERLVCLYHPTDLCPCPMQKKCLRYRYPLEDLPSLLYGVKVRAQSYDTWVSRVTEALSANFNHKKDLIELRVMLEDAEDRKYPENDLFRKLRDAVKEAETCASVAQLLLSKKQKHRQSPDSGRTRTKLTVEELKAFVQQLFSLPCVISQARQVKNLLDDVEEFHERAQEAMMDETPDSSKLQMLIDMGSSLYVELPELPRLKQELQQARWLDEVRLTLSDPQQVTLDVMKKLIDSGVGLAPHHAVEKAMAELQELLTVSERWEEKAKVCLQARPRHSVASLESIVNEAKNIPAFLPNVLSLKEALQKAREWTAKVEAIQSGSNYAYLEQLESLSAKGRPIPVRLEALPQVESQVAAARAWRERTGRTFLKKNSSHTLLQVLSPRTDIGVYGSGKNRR
Jarid1B, sequence (Q9UGL1 2-751): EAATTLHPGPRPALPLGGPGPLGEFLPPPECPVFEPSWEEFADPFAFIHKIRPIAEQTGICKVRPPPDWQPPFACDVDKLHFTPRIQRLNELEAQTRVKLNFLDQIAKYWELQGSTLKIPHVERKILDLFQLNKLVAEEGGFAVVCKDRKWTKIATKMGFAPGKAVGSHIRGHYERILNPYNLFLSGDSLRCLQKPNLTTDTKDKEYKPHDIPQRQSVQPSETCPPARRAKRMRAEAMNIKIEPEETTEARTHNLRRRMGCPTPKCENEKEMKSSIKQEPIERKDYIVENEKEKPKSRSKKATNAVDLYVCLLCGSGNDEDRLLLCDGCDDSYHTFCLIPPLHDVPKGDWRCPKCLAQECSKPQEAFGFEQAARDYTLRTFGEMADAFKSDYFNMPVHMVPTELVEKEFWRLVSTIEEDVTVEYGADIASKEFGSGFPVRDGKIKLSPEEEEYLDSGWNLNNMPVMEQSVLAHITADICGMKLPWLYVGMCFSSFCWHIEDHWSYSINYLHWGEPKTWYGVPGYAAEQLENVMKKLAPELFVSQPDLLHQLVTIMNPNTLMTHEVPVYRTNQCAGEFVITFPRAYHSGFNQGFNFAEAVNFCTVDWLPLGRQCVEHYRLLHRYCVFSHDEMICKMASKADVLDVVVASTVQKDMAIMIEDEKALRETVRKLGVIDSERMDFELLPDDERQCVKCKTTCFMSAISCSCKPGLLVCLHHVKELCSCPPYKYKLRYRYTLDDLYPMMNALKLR

Compound | IC50 (Jarid1A) [nM] | IC50 (Jarid1B) [nM] | IC50 (JMJD2C) [nM] | IC50 (JMJD2A) [nM] | IC50 (KDM5A and KDM5B) [nM]
O=C(O)c1ccnc2cc(C(O)C3CCOCC3)[nH]c12 (racemic) [Example 43, (±)-2-[hydroxy(oxan-4-yl)methyl]-1H-pyrrolo[3,2-b]pyridine-7-carboxylic acid] | < 100 | < 100 | 100 to 1000 | 100 to 1000 | 
O=C(O)c1ccnc2cc(C(=O)N3CCCC3)[nH]c12 [Example 99, 2-(pyrrolidin-1-ylcarbonyl)-1H-pyrrolo[3,2-b]pyridine-7-carboxylic acid] | < 100 | < 100 | < 100 | < 100 | 
COc1cccc(C(O)c2cc3nccc(C(=O)O)c3[nH]2)c1 (racemic) [Example 24, (±)-2-[hydroxy-(3-methoxyphenyl)methyl]-1H-pyrrolo[3,2-b]pyridine-7-carboxylic acid] | < 100 | < 100 | 100 to 1000 | 100 to 1000 | 
O=C(O)c1ccnc2cc(Cc3ccc(F)c(F)c3)[nH]c12 [Example 126, 2-(3,4-difluorobenzyl)-1H-pyrrolo[3,2-b]pyridine-7-carboxylic acid] | 1000 to 10000 | 1000 to 10000 | < 100 | < 100 | 
O=C(O)c1ccnc2cc(Cc3ccccc3)[nH]c12 [Example 7, 2-benzyl-1H-pyrrolo[3,2-b]pyridine-7-carboxylic acid, sodium salt] | 100 to 1000 | 100 to 1000 | 100 to 1000 | 100 to 1000 | > 10000
